Measurements as given in US5409937A, “Hexahydrofuro(2,3-b)furans as PAF antagonists” (British Biotech Pharmaceuticals Limited, priority 1991, dated 1995).

Biological target: T1, PAF receptor (Homo sapiens, UniProt P25105)
T1 construct: washed human platelet membranes; from tissue; host or cells: human platelets (platelet concentrates from a hospital blood bank), lysed washed membranes
Assay: Inhibition of [^3 H]-PAF binding to washed human platelet membranes
Conditions: 0.5 nM [^3 H]-PAF, 1 hour at 0° C., pH 7.0, 0.25% BSA
Description: Inhibition of [^3 H]-PAF binding to washed human platelet membranes
In common with the compounds of the invention (general formula I) those of Examples 1-13 it PAF-induced functions at both cellular and tissue levels by inhibition of PAF binding to its specific receptor site. The inhibition of [^3 H]-PAF binding to washed human platelet membranes by representative compounds was determined by isotopic labelling and filtration techniques. Platelet concentrates were obtained from a hospital blood bank. These platelet concentrates (500-2500 ml.) were centrifuged at 800 rpm for 10 minutes in a SORVALL RC3B centrifuge to remove the red blood cells present. (The word SORVALL is a trade mark.) The supenatant was subsequently centrifuged at 3,000 rpm in a SORVALL RC3B centrifuge to pellet the platelets present. The platelet rich pellets were resuspended in a minimum volume of buffer (150 mM NaCl, 10 mM Tris, 2 mM EDTA, pH 7.5) and layered onto Ficoll-Paque gradients, 9 ml platelet concentrate to 2 ml Ficoll, and centrifuged at 1,900 rpm for 15 minutes in a SORVALL RT6000 centrifuge. This step removes the residual red blood cells and other nonspecific material such as lymphocytes from the preparation. The platelets which form a band between the plasma and the Ficoll were removed, resuspended in the above buffer and centrifuged at 3,000 rpm for 10 minutes in a SORVALL RT6000 centrifuge. […]
The assay was conducted by preparing a series of Tris-buffered solutions of the selected antagonist of predetermined concentrations. […] Each washed residue was dried under vacuum on a sampling manifold and placed into vials containing 20 ml of OPTIPHASE MP scintillation fluid and the radioactivity counted in a liquid scintillation counter. (The word OPTIPHASE is a trade mark.) Defining the counts for total binding with antagonist from a test sample as "TBA"; the counts for total binding from the control sample C1 as "TB"; and the counts for nonspecific binding from the control sample C2 as "NSB", the percent inhibition of each test antagonist can be determined by the following equation: […]

T1 sequence (P25105 whole entry): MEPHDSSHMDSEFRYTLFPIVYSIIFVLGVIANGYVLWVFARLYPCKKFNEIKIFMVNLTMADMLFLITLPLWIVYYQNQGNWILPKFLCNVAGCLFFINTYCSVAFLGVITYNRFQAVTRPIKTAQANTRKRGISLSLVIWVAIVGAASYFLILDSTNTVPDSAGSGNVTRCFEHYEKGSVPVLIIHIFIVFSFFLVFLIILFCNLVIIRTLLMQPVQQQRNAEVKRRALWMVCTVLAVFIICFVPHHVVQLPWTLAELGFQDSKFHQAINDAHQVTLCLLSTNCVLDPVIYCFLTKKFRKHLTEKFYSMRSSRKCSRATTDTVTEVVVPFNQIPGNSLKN

`Cc1nc2ccccc2n1C[C@H]1C[C@@H]2C[C@H](c3ccc(F)cc3)O[C@@H]2O1` (relative stereo) [1(e), (2R*, 3aS*, 5R*, 6aR*)-5-(4-fluorophenyl)-2-(1H-2-methylbenzimidazol-1-ylmethyl)hexahydrofuro[2,3-b]furan] was tested, and the IC50 was 450 nM.
`Cc1nc2ccccc2n1C[C@H]1C[C@@H]2C[C@@H](c3ccc(F)cc3)O[C@@H]2O1` (relative stereo) [1(d), (2R*, 3aS*, 5S*, 6aR*)-5-(4-Fluorophenyl)-2-(1H-2-methylbenzimidazol-1-ylmethyl)hexahydrofuro[2,3-b]furan] showed an IC50 of 8000 nM.
`Cc1nc2cnccc2n1C[C@H]1C[C@@H]2C[C@@H](c3ccc(F)cc3)O[C@@H]2O1` (relative stereo) [Example 2, 5-(4-Fluorophenyl)-2-(1H-2-methylimidazo[4,5-c]pyrid-1-ylmethyl)hexahydrofuro[2,3-b]furan] gave an IC50 of 240 nM.
